Patent US20250235447A1, “METHODS FOR TREATING CARDIOVASCULAR CONDITIONS AND METHODS OF INCREASING THE EFFICIENCY OF CARDIAC METABOLISM” (IMBRIA PHARMACEUTICALS, INC., priority 2021, published 2025)
Each block holds one compound with its values, some of them ahead of it.

Tests used:
[1] = Pharmacodynamic study in obese patients with Type 2 diabetes: preliminary safety data; format: in vivo, human
Procedure: (§1) This was a randomized study consisting of a population of 20 patients with Type 2 diabetes and a BMI≥30 kg/m^2. The first five patients were treated for four weeks; the subsequent 15 patients (patients 6-20) were treated for eight weeks (with five additional patients prn). Ten patients had hyperpolarized ^13C-pyruvate MRS.
The preliminary baseline characteristics of randomized participants is detailed in FIG. 52. The preliminary baseline characteristics of completers is detailed in FIG. 53. FIG. 54 details adverse events as of the data cut-off date of September 20. Nineteen patients were on the drug from approximately one to eight weeks. There were no SAEs. Seven subjects reported nine adverse events. Two subjects had three drug-related AEs. All AEs were mild or moderate in severity. […] Overall, the compound was well-tolerated.

[2] = 28-day dog toxicity study (NOAEL and exposure); format: in vivo; conditions: from HED
Procedure: Based on the nonclinical toxicology data, it was considered that subjects in this clinical study were not at unreasonable risk of adverse effects. […] For a 60-kg individual, the NOAEL dose would be 6480 mg. With a 10-fold safety factor applied, this would allow for a maximum recommended starting dose (MRSD) of 648 mg/day.7,8 The planned starting dose in the current Phase 1 study was 50 mg, equivalent to 0.83 mg/kg/day for a 60-kg subject. This starting dose is less than 10% of the MRSD determined from the dog NOAEL and less than 1% of the dog NOAEL.
The relevant animal study was the 28-day dog study where the NOAEL for IMB-1018972 was 200 mg/kg/day.

[3] = system: myocardial energetics and metabolism; test: Pharmacodynamic study in obese patients with Type 2 diabetes (PCr/ATP, myocardial triglyceride, body weight); format: in vivo, human
Procedure: Results of a pharmacodynamic study to evaluate the impact of 200 mg BID of a composition of a compound with formula (X) on rest myocardial energetics (PCr/ATP) in obese individuals with type 2 diabetes are detailed in FIGS. 52-65. The key endpoints of the study were to evaluate the metabolic response, specifically the impact on PDH flux using hyperpolarized ^13C-pyruvate MRS, as a measure of the compound's ability to promote glucose oxidation and recouple glucose oxidation with glycolysis. Also assessed was the effect on cardiac systolic and diastolic function, measured by cardiac magnetic resonance (CMR) and transthoracic echocardiography (TTE), and the effect on cardiac steatosis using ^1H-MRS.
The primary objective is to evaluate the impact of 200 mg of formula (X) on rest and stress myocardial energetics (PCr/ATP). Other objectives include: to evaluate the metabolic response, specifically the impact on PDH flux using hyperpolarized ^13C-pyruvate MRS, as a measure of the compound's ability to promote glucose oxidation; to assess the effect on cardiac systolic and diastolic function, as measured by cardiac magnetic resonance (CMR) and transthoracic echocardiography (TTE); to measure the impact on myocardial steatosis.
as §1

[4] = FIH study, SAD part: plasma pharmacokinetics after single oral dose; conditions: all blood samples of subjects that received IMB-1018972
[5] = FIH study: safety and tolerability (adverse events, laboratory, vital signs, ECG)
[6] = human, in vivo
clinical = conditions: human, in vivo, 50 mg
[7] = human, in vivo; remark: listed apart in the source
[8] = 200 mg, combined 4- and 8-week cohorts, interim data

SMILES: COc1ccc(CN2CCN(CCOC(=O)c3cccnc3)CC2)c(OC)c1OC [IMB-1018972]
- Flushing ([1]; nineteen patients on drug): no flushing reported
- Number of adverse events ([1]; nineteen patients on drug): nine
- Number of drug-related AEs ([1]; nineteen patients on drug): three
- Subjects reporting adverse events ([1]; nineteen patients on drug): Seven
- Subjects with drug-related AEs ([1]; nineteen patients on drug): Two
- SAEs ([1]; nineteen patients on drug about one to eight weeks): no SAEs
- Tolerability ([1]; overall): well-tolerated
- NOAEL dose for a 60-kg individual [2]: 6480 mg
- Cardiac energetics (PCr/ATP) [3, 8]: significant and meaningful increase
- Myocardial steatosis (myocardial triglycerides) [3, 8]: highly significant reduction
- Mean fasting glucose ([3]; short-term administration, cohorts of the study): significant reduction
- Body weight ([3]; short-term administration, combined 4- and 8-week cohorts): significant weight loss
- IMB-1018972 (parent) in plasma samples [4]: could be measured in only few plasma samples
- Effect of fed dosing on number and incidence of TEAEs ([5]; FE arm of SAD part): appeared to attenuate the number and incidence of TEAEs
- Subjects with TEAEs of flushing, SOC vascular disorders ([5]; MAD part): 33.3%
- Subjects with TEAEs, SOC general disorders and administration site conditions ([5]; MAD part): 27.8%
- Subjects with TEAEs, SOC musculoskeletal and connective tissue disorders ([5]; MAD part): 27.8%
- Number of TEAEs of flushing (mild) ([5]; MAD part, 150 mg q12 h): 7
- Subjects with TEAEs considered related to the study drug ([5]; MAD part, 6 of 18): 33.3%
- Subjects with TEAEs considered not related to the study drug ([5]; MAD part, 11 of 18): 61.1%
- Subjects with TEAEs, SOC gastrointestinal disorders ([5]; SAD part): 16.7%
- Subjects with TEAEs, SOC general disorders and administration site conditions ([5]; SAD part): 20.8%
- Subjects with TEAEs, SOC nervous system disorders ([5]; SAD part): 29.2%
- Subjects with TEAEs, SOC skin and subcutaneous tissue disorders ([5]; SAD part): 16.7%
- Subjects with TEAEs, SOC vascular disorders ([5]; SAD part): 29.2%
- Subjects with drug-related TEAEs of flushing (vascular disorders) ([5]; SAD part): 25%
- Subjects with drug-related TEAEs, nervous system disorders ([5]; SAD part): 16.7%
- Subjects with TEAEs considered related to the study drug ([5]; SAD part, 7 of 24): 29.2%
- Subjects reporting flushing ([5]; single 150 mg IMB-1018972, fasted, FE arm): 2
- Subjects reporting flushing ([5]; single 400 mg IMB-1018972, fasted): Four

- Time at which detectable concentrations generally appeared [6]: 15 to 30 min
- Tmax (clinical): 8 h
- Geometric mean Cmax lower, MAD Day 1 150 mg fed vs SAD single 150 mg fed [7]: 32%
SMILES: COc1ccc(CN2CCNCC2)c(OC)c1OC [trimetazidine]
